These results are taken from patent US4022787A (priority 1975, dated 1977).

The test system of assay [1] is rabbit eye pupil. The following applies: in vivo.
The subject of assay [2] is sweat glands. Conditions: cited from earlier work.

Structures can show the parent of a compound that is named as a salt.

`CN1[C@@H]2CC[C@H]1C[C@@H](OC(=O)C(CO)c1ccccc1)C2` (some centres unmarked) [Atropine sulfate]: in assay [1], the “rabbit eye pupil result compared with test compound” value is reported as “gave similar results”.
As for `CN1C2CC(OC(=O)C(COC(=O)c3ccccc3)c3ccccc3)CC1C1OC12` (centres unmarked) [benzoyl ester of scopolamine], the sweat inhibition result in assay [2] is recorded as “valuable for sweat inhibition”.
